Read-outs that look alike come from different tables or passages of the source.
Assay: Nelfinavir plasma pharmacokinetics (HPLC-MS, noncompartmental)
Type: in vivo, human
Experimental: To determine CYP3A4 phenotype, a single 3 mg oral dose of midazolam hydrochloride, a CYP3A4 substrate, was administered at day -2 (2 days prior to commencing nelfinavir) and again at steady state (cycle 1 day 20). Serial venous blood samples were collected at 15, 30, 60, 120, 180, 240, and 300 minutes following administration of midazolam. Nelfinavir pharmacokinetics (PK) were obtained after single dose administration, cycle 1 day 1, and again at steady state, cycle 2 day 1. Serial venous blood samples were collected pre-dose and at 1, 2, 3, 4, 5, 6 and 12 hours after administration. Plasma concentrations of midazolam and nelfinavir were determined with a validated assay employing high performance liquid chromatography (HPLC) with mass spectrometric detection. Noncompartmental pharmacokinetic analyses were performed with WinNonlin 5.2 (Pharsight). Individual concentration-time profiles were constructed for each patient, course and drug resulting in four profiles per patient (two each for midazolam and nelfinavir). The maximum plasma concentration (Cmax) and the time of maximum plasma concentration (Tmax) were the observed values. Drug exposure was estimated using the area under the concentration-time curve (AUC). The area under the concentration-time curve (AUC) from time zero to the time of the final quantifiable sample (AUClast) was calculated using the linear trapezoidal method. The area under the concentration-time curve from time zero to infinity (AUCinf) was calculated by extrapolation, using the terminal rate constant from the last measurable concentration.

[1] = Cycle 2 Day 1 steady state, 3125 mg bid, mean, n=6

## Cc1c(O)cccc1C(=O)N[C@@H](CSc1ccccc1)[C@H](O)CN1C[C@H]2CCCC[C@H]2C[C@H]1C(=O)NC(C)(C)C [nelfinavir, Nelfinavir]
Cycle 1 Day 1, first oral dose 3125 mg, mean, n=10
  CL_F: 49,020 mL/h
[1]
  CL_F: 59,826 mL/h
  Evening Trough: 2883 ng/mL
  Morning Trough: 4597 ng/mL
human, in vivo
  doses above which PK showed potential non-linearity: 1875 to 2500 mg
human, in vivo, po, 1250 mg
  AUC(0-inf): 24500 ng·h/mL
  AUC(0-t): 16600 ng·h/mL
  CL_F: 52,714 mL/h
  Cmax: 2390 ng/mL
  Tmax: 3.7 h
  half-life: 6.6 h
human, in vivo, po, 1875 mg
  AUC(0-inf): 189000 ng·h/mL
  AUC(0-t): 73900 ng·h/mL
  CL_F: 21,034 mL/h
  Cmax: 10400 ng/mL
  Tmax: 3.8 h
  half-life: 11.9 h
human, in vivo, po, 2500 mg
  AUC(0-inf): 79400 ng·h/mL
  AUC(0-t): 61000 ng·h/mL
  CL_F: 55,342 mL/h
  Tmax: 6 h
  half-life: 4.5 h
human, in vivo, po, 3750 mg
  AUC(0-inf): 131000 ng·h/mL
  AUC(0-t): 61500 ng·h/mL
  CL_F: 52,114 mL/h
  Cmax: 7920 ng/mL
  Tmax: 2.7 h
  half-life: 9.2 h
human, in vivo, Cycle 1 Day 1, first oral dose 2500 mg, mean, n=3, read-out: Cmax
  Cmax: 9740 ng/mL
human, in vivo, Cycle 1 Day 1, first oral dose 3125 mg, mean, n=10, read-out: AUCinf
  AUC(0-inf): 140000 ng·h/mL
human, in vivo, Cycle 1 Day 1, first oral dose 3125 mg, mean, n=10, read-out: T1/2 (converted)
  half-life: 9.2 h
human, in vivo, Cycle 1 Day 1, first oral dose 3125 mg, mean, n=13, read-out: AUClast
  AUC(0-t): 56900 ng·h/mL
human, in vivo, Cycle 1 Day 1, first oral dose 3125 mg, mean, n=13, read-out: Cmax
  Cmax: 7640 ng/mL
human, in vivo, Cycle 1 Day 1, first oral dose 3125 mg, mean, n=13, read-out: Tmax
  Tmax: 4.8 h
human, in vivo, Cycle 2 Day 1 steady state, 3125 mg bid, mean, n=7, read-out: Cmax
  Cmax: 9550 ng/mL
human, in vivo, Cycle 2 Day 1 steady state, 3125 mg bid, mean, n=7, read-out: Tmax
  Tmax: 3.3 h
human, in vivo, Cycle 2 Day 1 steady state, 3125 mg bid, mean, read-out: AUClast
  AUC(0-t): 60000 ng·h/mL
In vivo
  change of overall exposure or maximal plasma concentration with dose: No increase
In vivo, po
  dose linearity of first dose pharmacokinetics: Non-linear pharmacokinetics

From paper PMC4226674, “A phase I trial of the HIV protease inhibitor nelfinavir in adults with solid tumors” (Oncotarget, 2014)
